Assay results reported in patent publication US8389567B2, “Compounds that modulate intracellular calcium” (Calcimedica, Inc., priority 2007, dated 2013).

Columns and labels:
[1] = system: STIM1-induced Ca2+ entry in HEK[STIM1] cells
Protocol: (§1) To test whether the Ca^2+ entry pathway constitutively activated by STIM 1 overexpression is pharmacologically similar to endogenous SOCE, HEK[STIM1] cells are pre-incubated with increasing doses of 2-APB and STIM1-induced Ca^2+ entry is measured.

[2] = system: store-operated calcium entry in HEK-Zeo control cells; settings: read-out: IC50 for inhibition of calcium entry, thapsigargin store depletion, readdition of external calcium, pre-incubation with increasing doses
Protocol: as §1

[3] = system: store-operated calcium entry in HEK[STIM1] cells; settings: read-out: IC50 for inhibition of calcium entry, thapsigargin store depletion, readdition of external calcium, pre-incubation with increasing doses
Protocol: as §1

NCCOB(c1ccccc1)c1ccccc1 [Compound 2-APB, 2-aminoethoxydiphenyl borate]
effect on calcium entry at lower concentrations ([1]; absence of store depletion, lower concentrations of 2-APB (biphasic effect)): potentiated | IC50 ([1]; read-out: IC50 for inhibition of constitutive calcium entry, absence of store depletion): 10.8 µM | IC50 [2]: 11.8 µM | IC50 [3]: 10.5 µM
